Experimental findings from ChEMBL document CHEMBL2311297 (Bioorg Med Chem Lett, 2013) are described below.

In assay [1] the target is Myc proto-oncogene protein (Homo sapiens, UniProt P01106). Description: Inhibition of recombinant His6-tagged c-Myc bHLH-ZIP domain (353 to 437 amino acid residues) (unknown origin) assessed as disruption of Myc-Max dimerization at 100 uM by electrophoretic mobility shift assay relative to control. For orientation: Mobility shift assays separate free from complexed probe on a gel.
Sequence of Myc proto-oncogene protein (P01106 whole entry, the tested form may be a part): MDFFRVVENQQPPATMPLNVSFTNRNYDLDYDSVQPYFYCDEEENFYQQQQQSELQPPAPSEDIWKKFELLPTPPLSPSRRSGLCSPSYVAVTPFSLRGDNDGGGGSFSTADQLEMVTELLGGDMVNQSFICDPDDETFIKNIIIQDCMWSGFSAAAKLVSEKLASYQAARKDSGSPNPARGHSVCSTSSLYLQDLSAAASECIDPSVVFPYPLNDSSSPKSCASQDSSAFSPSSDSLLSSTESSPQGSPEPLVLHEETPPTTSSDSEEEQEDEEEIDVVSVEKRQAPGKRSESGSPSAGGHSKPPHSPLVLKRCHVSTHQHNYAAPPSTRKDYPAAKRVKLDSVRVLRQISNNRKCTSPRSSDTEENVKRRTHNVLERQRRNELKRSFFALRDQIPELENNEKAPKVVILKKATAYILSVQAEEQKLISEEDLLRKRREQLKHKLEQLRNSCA

In the next assay the test system is Daudi. In words: Cytotoxicity against human Daudi cells assessed as growth inhibition after 3 to 5 days by MTT assay.
Another assay has as its system HL-60. In words: Cytotoxicity against human HL60 cells assessed as growth inhibition after 3 to 5 days by MTT assay. (In general: Formazan colour is commonly taken as a measure of viable cells.)
Assay [2] in a line: Binding affinity to 5'-HEX-tagged double standard 22 bp 5'-hexachlorofluoresceine-CACCCGGTCACGTGGCCTACAC-3' (unknown origin) by PAGE analysis.
The target of a further assay is Protein max (Homo sapiens, UniProt P61244). Description: Inhibition of His6-tagged Max (151 amino acid residues) (unknown origin) assessed as disruption of Max-Max dimerization by electrophoretic mobility shift assay.
Sequence of Protein max (P61244 whole entry): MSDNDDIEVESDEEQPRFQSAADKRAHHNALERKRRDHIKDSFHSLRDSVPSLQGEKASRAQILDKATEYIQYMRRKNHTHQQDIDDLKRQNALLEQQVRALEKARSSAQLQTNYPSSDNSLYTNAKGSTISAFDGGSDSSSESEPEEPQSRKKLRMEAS

The source made the active and inactive calls. The rule behind the calls is not given here.

As to `O=C(O)CCC(=O)Nc1ccc(Nc2ccccc2-c2ccccc2)c2nonc12`, the inhibition (usually the change of the read-out against control, counted positive when it falls) in assay [1] turned out to be 17%.
With `CC(=O)Nc1ccc(Nc2ccccc2-c2ccccc2)c2nonc12`, in assay [1], the inhibition was found to be 2%.
Still for that read-out and setting: as for `O=C(O)COCC(=O)Nc1ccc(Nc2ccccc2-c2ccccc2)c2nonc12`, the figure is 33%; as for `O=[N+]([O-])c1ccc(Nc2ccccc2-c2ccccc2)cc1`, 0%; as for `COC(=O)Nc1ccc(Nc2ccccc2-c2ccccc2)c2nonc12`, 0%.
Same read-out and setting: as for `Cc1ccc(Nc2ccc([N+](=O)[O-])c3nonc23)cc1`, the figure is 0%; as for `O=C(O)c1cccc(Nc2ccc([N+](=O)[O-])c3nonc23)c1`, 0%.
The same measure, in the same setting: the result for `O=[N+]([O-])c1ccc(Nc2ccccc2O)c2nonc12` reads 13%.
As to `O=C(O)c1ccc(Nc2ccc([N+](=O)[O-])c3nonc23)cc1`, the IC50 – broadly, the concentration at which inhibition is half-maximal – in the assay on Daudi is 56 µM; in the assay on HL-60, 184 µM; at Protein max it was > 100 µM. Moreover, the result in assay [2] was inactive. Further, the inhibition in assay [1] came to 93%.
Take `O=[N+]([O-])c1ccc(Nc2cccc(-c3ccccc3)c2)c2nonc12`: in assay [1], the inhibition is 20%.
The same measure, in the same setting: the result for `COc1ccccc1Nc1ccc([N+](=O)[O-])c2nonc12` reads 0%; that for `Cc1ccccc1Nc1ccc([N+](=O)[O-])c2nonc12`, 11%; that for `O=[N+]([O-])c1ccc(Oc2ccccc2-c2ccccc2)c2nonc12`, 36%.
The same measure, in the same setting: the result for `O=C(O)c1ccccc1Nc1ccc([N+](=O)[O-])c2nonc12` reads 8%.
Consider `O=[N+]([O-])c1ccc(Nc2ccccc2-c2ccccc2)c2nonc12`, for which the IC50 stood at 10 µM with Daudi and 30 µM in the assay with HL-60. The inhibition in assay [1] is 38%.
Regarding `O=[N+]([O-])c1ccc(Nc2ccccc2)c2nonc12`, the inhibition in assay [1] is 2%.
Same read-out and setting: as for `O=[N+]([O-])c1ccc(NC2CCCCC2)c2nonc12`, the figure is 11%; as for `O=C(Nc1ccc(Nc2ccccc2-c2ccccc2)c2nonc12)C(F)(F)F`, 25%; as for `O=[N+]([O-])c1ccc(Nc2ccccc2Br)c2nonc12`, 39%.
Same read-out and setting: as for `O=[N+]([O-])c1ccc(N2CCCCC2)c2nonc12`, the figure is 10%.
Take `O=[N+]([O-])c1ccc(Nc2ccc(-c3ccccc3)cc2)c2nonc12`: the inhibition in assay [1] worked out at 28%.
Regarding `O=[N+]([O-])c1ccc(NCc2ccccc2)c2nonc12`, in assay [1], the inhibition came out at 0%.
